Experimental data taken from patent publication US20010039027A1, “Cyclitol containing carbohydrates from human tissue which regulate lipogenic activity” (priority 1996, published 2001).

Test system: rat adipocytes
Test: Activation of lipogenesis in rat adipocytes
Format: cell-based
Conditions: insulin 1 nM; twenty independent lipogenesis assays
Description: This was carried out on adipocytes isolated from the epididymal fat pads of young rats. Briefly adipocytes from two rat epididymial fat pads were suspended in 8 ml of Krebs Ringer bicarbonate and 250 μL of the cell suspension was incubated at 37° C. for two hours in Krebs Ringer bicarbonate, containing 1% albumin and 5 mM [U-^14C]-glucose (1 μCi/sample) with or without insulin (1 nM) or 10 μL of IPG solutions. The rate of incorporation of uniformly labelled glucose into fatty acids was used as a measure of lipogenesis.

**Q.** Which “Lipogenesis (lipogenic activity)” value does the source give for Insulin here?
**A.** 5160 ± 310 (n-20) milliunits/g liver
